Reference: patent publication US20160220569A1, “CDK4/6 Inhibitor Dosage Formulations For The Protection Of Hematopoietic Stem And Progenitor Cells During Chemotherapy” (G1 Therapeutics, Inc., priority 2015, published 2016)
Values joined by “and” are separate entries in the source; they are usually repeats but may differ in a detail not shown here. Equal values may be shown once. Read-outs that look alike come from different tables or passages of the source.

Assays:
[1] = 14-day toxicokinetic study in dogs; assay type: in vivo, dogs (Beagle); conditions: male and female dogs
Description: Dogs in the control group were not exposed to Compound 1 and so were a true control group.
The required weight of Compound 1 di-HCl was added to an appropriate size vessel. […] The vessel was placed on a stirring hotplate and the formulation heated to a temperature of 30-35° C. The contents of the vessel were allowed to stir at 30-35° C. or a stir plate until all test article appeared to be dissolved, and for a period of at least 1 hour. The pH of the formulation was verified and adjusted to 4.0-4.5 using 1N HCl or 1N NaOH as required. The formulation was transferred into an appropriate size graduated cylinder. Sufficient vehicle control will be added to the cylinder to obtain the final desired concentration of formulated test article. The completed stock formulation was dispensed into several amber glass bottles as aliquots for each day of dosing. These formulations were stored at controlled room temperature (15-30° C.) until used for dose administration.
The beagle dog was chosen for this study as it is a species that is used for non-clinical toxicity and pharmacokinetic evaluations and satisfies the regulatory requirement for non-clinical safety studies in a non-rodent species. […]

[2] = Compound 1 PK dosed Days 1-3 with etoposide and carboplatin; assay type: in vivo, human
Description: Analysis of plasma concentration versus time data for calculation of standard pharmacokinetic (PK) parameters following intravenous infusion administration was conducted using Phoenix WinNonlin version 6.3 using a nominal infusion duration and scheduled blood sampling times.

[3] = 200 mg/m^2 with Etoposide and Carboplatin, Day 1, Max
[4] = 200 mg/m^2 with Etoposide and Carboplatin, Day 1, Min
[5] = 200 mg/m^2 with Etoposide and Carboplatin, Day 1, individual subjects
[6] = 200 mg/m^2 with Etoposide and Carboplatin, Day 3, Max
[7] = 200 mg/m^2 with Etoposide and Carboplatin, Day 3, Min
[8] = 200 mg/m^2 with Etoposide and Carboplatin, Day 3, individual subjects

Question: Which “systemic exposure with increasing dose level” value [1] does the source give for `CN1CCN(c2ccc(Nc3ncc4cc5n(c4n3)C3(CCCCC3)CNC5=O)nc2)CC1` [Compound 1, 2′-((5-(4-methylpiperazin-1-yl)pyridin-2-yl)amino)-7′,8′-dihydro-6′H-spiro[cyclohexane-1,9′-pyrazino[1′,2′:1,5]pyrrolo[2,3-d]pyrimidin]-6′-one] here?
Answer: increased roughly proportionally

Question: What about the AUCinf [2, 3] of the same molecule?
Answer: 3320 ng·h/mL

Question: What about the Cmax [2, 3] of the same molecule?
Answer: 2170 ng/mL

Question: What about the t½ [2, 3] of the same molecule?
Answer: 10.6 h

Question: What about the AUC24.5 [2, 4] of the same molecule?
Answer: 1530 ng·h/mL

Question: What about the AUCinf [2, 4] of the same molecule?
Answer: 1650 ng·h/mL

Question: What about the Cmax [2, 4] of the same molecule?
Answer: 587 ng/mL

Question: And the t½ [2, 4]?
Answer: 6.29 h

Question: And the AUC24.5 [2, 5]?
Answer: 2850 ng·h/mL and 1930 ng·h/mL and 2010 ng·h/mL and 2520 ng·h/mL and 1530 ng·h/mL

Question: What about the AUCinf [2, 5] of the same molecule?
Answer: 2960 ng·h/mL and 3320 ng·h/mL and 2290 ng·h/mL and 2680 ng·h/mL and 1650 ng·h/mL

Question: What about the Cmax [2, 5] of the same molecule?
Answer: 2170 ng/mL and 742 ng/mL and 845 ng/mL and 1840 ng/mL and 587 ng/mL

Question: And the t½ [2, 5]?
Answer: 8.94 h and 10.6 h and 8.91 h and 7.09 h and 7.28 h

Question: What about the AUCτ [2, 6] of the same molecule?
Answer: 3300 ng·h/mL

Question: What about the Cmax [2, 6] of the same molecule?
Answer: 3360 ng/mL

Question: What about the AUCτ [2, 7] of the same molecule?
Answer: 2010 ng·h/mL

Question: And the Cmax [2, 7]?
Answer: 355 ng/mL

Question: What about the t½ [2, 7] of the same molecule?
Answer: 6.99 h

Question: And the AUCτ [2, 8]?
Answer: 3300 ng·h/mL and 2010 ng·h/mL and 2630 ng·h/mL and 2610 ng·h/mL and 2890 ng·h/mL

Question: And the Cmax [2, 8]?
Answer: 723 ng/mL and 355 ng/mL and 1190 ng/mL and 3360 ng/mL

Question: And the pre-dose concentration averaging ([2]; Day 3, mean)?
Answer: 20.6 ng/mL

Question: What about the AUC ([2]; human, plasma, intravenous, 200 mg/m2, 200 mg/m^2 with Etoposide and Carboplatin, Day 1, Geo. Mean, read-out: AUC24.5) of the same molecule?
Answer: 2230 ng·h/mL

Question: And the AUC(0-inf) ([2]; human, plasma, intravenous, 200 mg/m2, 200 mg/m^2 with Etoposide and Carboplatin, Day 1, Geo. Mean, read-out: AUCinf)?
Answer: 2470 ng·h/mL

Question: What about the Cmax ([2]; human, plasma, intravenous, 200 mg/m2, 200 mg/m^2 with Etoposide and Carboplatin, Day 1, Geo. Mean, read-out: Cmax) of the same molecule?
Answer: 1070 ng/mL

Question: And the half-life ([2]; human, plasma, intravenous, 200 mg/m2, 200 mg/m^2 with Etoposide and Carboplatin, Day 1, Geo. Mean, read-out: t½ (converted))?
Answer: 8.07 h

Question: What about the AUC(0-inf) ([2]; human, plasma, intravenous, 200 mg/m2, 200 mg/m^2 with Etoposide and Carboplatin, Day 1, Mean, read-out: AUCinf) of the same molecule?
Answer: 2530 ng·h/mL

Question: And the Cmax ([2]; human, plasma, intravenous, 200 mg/m2, 200 mg/m^2 with Etoposide and Carboplatin, Day 1, Mean, read-out: Cmax)?
Answer: 1200 ng/mL

Question: What about the half-life ([2]; human, plasma, intravenous, 200 mg/m2, 200 mg/m^2 with Etoposide and Carboplatin, Day 1, Mean, read-out: t½ (converted)) of the same molecule?
Answer: 8.19 h

Question: And the AUC ([2]; human, plasma, intravenous, 200 mg/m2, 200 mg/m^2 with Etoposide and Carboplatin, Day 1, Median, read-out: AUC24.5)?
Answer: 2270 ng·h/mL

Question: And the AUC(0-inf) ([2]; human, plasma, intravenous, 200 mg/m2, 200 mg/m^2 with Etoposide and Carboplatin, Day 1, Median, read-out: AUCinf)?
Answer: 2490 ng·h/mL

Question: And the Cmax ([2]; human, plasma, intravenous, 200 mg/m2, 200 mg/m^2 with Etoposide and Carboplatin, Day 1, Median, read-out: Cmax)?
Answer: 923 ng/mL

Question: And the half-life ([2]; human, plasma, intravenous, 200 mg/m2, 200 mg/m^2 with Etoposide and Carboplatin, Day 1, Median, read-out: t½ (converted))?
Answer: 8.09 h

Question: And the AUC ([2]; human, plasma, intravenous, 200 mg/m2, 200 mg/m^2 with Etoposide and Carboplatin, Day 1, individual subjects, read-out: AUC24.5)?
Answer: 2860 ng·h/mL

Question: And the half-life ([2]; human, plasma, intravenous, 200 mg/m2, 200 mg/m^2 with Etoposide and Carboplatin, Day 1, individual subjects, read-out: t½ (converted))?
Answer: 6.29 h

Question: What about the AUC ([2]; human, plasma, intravenous, 200 mg/m2, 200 mg/m^2 with Etoposide and Carboplatin, Day 3, Geo. Mean, read-out: AUCτ) of the same molecule?
Answer: 2530 ng·h/mL

Question: What about the Cmax ([2]; human, plasma, intravenous, 200 mg/m2, 200 mg/m^2 with Etoposide and Carboplatin, Day 3, Geo. Mean, read-out: Cmax) of the same molecule?
Answer: 1090 ng/mL

Question: What about the half-life ([2]; human, plasma, intravenous, 200 mg/m2, 200 mg/m^2 with Etoposide and Carboplatin, Day 3, Geo. Mean, read-out: t½ (converted)) of the same molecule?
Answer: 8.95 h

Question: What about the AUC ([2]; human, plasma, intravenous, 200 mg/m2, 200 mg/m^2 with Etoposide and Carboplatin, Day 3, Mean, read-out: AUCτ) of the same molecule?
Answer: 2570 ng·h/mL

Question: What about the Cmax ([2]; human, plasma, intravenous, 200 mg/m2, 200 mg/m^2 with Etoposide and Carboplatin, Day 3, Mean, read-out: Cmax) of the same molecule?
Answer: 1380 ng/mL

Question: And the half-life ([2]; human, plasma, intravenous, 200 mg/m2, 200 mg/m^2 with Etoposide and Carboplatin, Day 3, Mean, read-out: t½ (converted))?
Answer: 9.04 h

Question: And the AUC ([2]; human, plasma, intravenous, 200 mg/m2, 200 mg/m^2 with Etoposide and Carboplatin, Day 3, Median, read-out: AUCτ)?
Answer: 2620 ng·h/mL

Question: And the Cmax ([2]; human, plasma, intravenous, 200 mg/m2, 200 mg/m^2 with Etoposide and Carboplatin, Day 3, Median, read-out: Cmax)?
Answer: 1100 ng/mL

Question: What about the half-life ([2]; human, plasma, intravenous, 200 mg/m2, 200 mg/m^2 with Etoposide and Carboplatin, Day 3, Median, read-out: t½ (converted)) of the same molecule?
Answer: 9.15 h

Question: And the half-life ([2]; human, plasma, intravenous, 200 mg/m2, 200 mg/m^2 with Etoposide and Carboplatin, Day 3, individual subjects, read-out: t½ (converted))?
Answer: 9.27 h

Question: And the AUC(0-inf) ([2]; human, plasma, intravenous, 200 mg/m2, 200 mg/m^2 with etoposide and carboplatin, Day 1, mean, read-out: AUCinf averaged)?
Answer: 2530 ng·h/mL

Question: And the Cmax ([2]; human, plasma, intravenous, 200 mg/m2, 200 mg/m^2 with etoposide and carboplatin, Day 1, mean, read-out: Cmax averaged)?
Answer: 1200 ng/mL

Question: And the half-life ([2]; human, plasma, intravenous, 200 mg/m2, 200 mg/m^2 with etoposide and carboplatin, Day 1, mean, read-out: Half-lives averaged (converted))?
Answer: 8.19 h

Question: What about the half-life ([2]; human, plasma, intravenous, 200 mg/m2, 200 mg/m^2 with etoposide and carboplatin, Day 1, range, read-out: Half-lives range) of the same molecule?
Answer: 6.29 to 10.6 h

Question: What about the AUC ([2]; human, plasma, intravenous, 200 mg/m2, 200 mg/m^2 with etoposide and carboplatin, Day 3, mean, read-out: AUCτ averaged) of the same molecule?
Answer: 2570 ng·h/mL

Question: And the Cmax ([2]; human, plasma, intravenous, 200 mg/m2, 200 mg/m^2 with etoposide and carboplatin, Day 3, mean, read-out: Cmax averaging)?
Answer: 1380 ng/mL

Question: And the half-life ([2]; human, plasma, intravenous, 200 mg/m2, 200 mg/m^2 with etoposide and carboplatin, Day 3, mean, read-out: Half-lives averaged (converted))?
Answer: 9.04 h

Question: And the half-life ([2]; human, plasma, intravenous, 200 mg/m2, 200 mg/m^2 with etoposide and carboplatin, Day 3, range, read-out: Half-lives range)?
Answer: 6.99 to 11 h

Question: What about the concentration at 24.5 h ([2]; human, plasma, intravenous, Day 1, 4 subjects, mean, read-out: concentration at 24.5 hours after the start of infusion, averaging) of the same molecule?
Answer: 20 ng/mL

Question: What about the concentration at 24.5 h ([2]; human, plasma, intravenous, Day 1, 4 subjects, range, read-out: concentration at 24.5 hours after the start of infusion, range) of the same molecule?
Answer: 11.3 to 35.9 ng/mL

Question: And the concentration at 24.5 h ([2]; human, plasma, intravenous, Day 3, mean, read-out: concentration at 24.5 hours after dosing, averaged)?
Answer: 24.6 ng/mL

Question: What about the concentration at 24.5 h ([2]; human, plasma, intravenous, Day 3, range, read-out: concentration at 24.5 hours after dosing, range) of the same molecule?
Answer: 11.5 to 34.5 ng/mL
